{
  "source": "patent US7834005B2",
  "about": "“Pyrrolobenzodiazepine derivatives, compositions comprising the same and methods related thereto” (The United States of America as represented by the …, priority 2003, dated 2010)",
  "design_in_all_cases": "species or system athymic mice",
  "key": {"[1]": {"experiment": "in vivo efficacy, OVCAR-3 (ovarian ca) subcutaneous tumor model", "conditions": "athymic, mouse, in vivo, OVCAR-3, Early-SC", "method": "(§1) NSC 694501 was evaluated for in vivo efficacy in athymic mice bearing 8 subcutaneous tumor models: LOX and UACC-62 (melanoma), OVCAR-3 and OVCAR-5 (ovarian ca), MDA-MB-435 (breastca), SF-295 and C-6 (glioma), and LS-174T (colonca). The models were selected on the basis of hollow fiber assays and in vitro time course assays.\n(§2) A qDx5 schedule conferred better efficacy than a q4Dx3 schedule in each of the 4 models tested on two schedules. NSC 694501 was active over a wide dosage range in athymic mice using compound prepared fresh just prior to injection in 1% EtOH vehicle: On a qDx5 schedule, the maximum tolerated dose was approximately 120 μg/kg/dose and the minimum effective dose in one of the most sensitive models (SF-295) was 16 μg/kg/dose."}, "OVCAR-3 (ovarian ca)": {"system": "OVCAR-3 (ovarian ca)", "experiment": "in vivo efficacy, OVCAR-3 (ovarian ca) subcutaneous tumor model", "conditions": "OVCAR-3, Early-SC, intravenous", "method": "as §1, §2"}, "[2]": {"experiment": "in vivo efficacy, SF-295 (glioma) subcutaneous tumor model", "conditions": "athymic, mouse, in vivo, SF-295, Early-SC", "method": "as §1, §2"}, "SF-295 (glioma)": {"system": "SF-295 (glioma)", "experiment": "in vivo efficacy, SF-295 (glioma) subcutaneous tumor model", "conditions": "for BW Loss / Growth Delay % [(T − C)/C] / Optimal % T/C / value in parentheses in Growth Delay column / tumor free (tf): SF-295, Early-SC, intravenous", "method": "as §1, §2"}},
  "note": "“And” between values parts separate entries of the source, which are not always exact repeats. Identical values can stand only once.",
  "data": [
    {"compound": "C=C1C[C@H]2C=Nc3cc(OCCCOc4cc5c(cc4OC)C(=O)N4CC(=C)C[C@H]4C=N5)c(OC)cc3C(=O)N2C1", "note": "[NSC 694501]", "values": [
      {"measurement": "MTD at 9 days", "setting": "[1]; Q4D X3, intravenous", "result": 0.45, "unit": "mg/kg"},
      {"measurement": "MTD at 5 days", "setting": "[1]; QD X5, intravenous", "result": 0.27, "unit": "mg/kg"},
      {"measurement": "BW Loss", "setting": "OVCAR-3 (ovarian ca); Q4D X3, 0.45 mg/kg/dose", "result": "6.6% and 13.9%"},
      {"measurement": "Growth Delay % [(T − C)/C]", "setting": "OVCAR-3 (ovarian ca); Q4D X3, 0.45 mg/kg/dose", "result": "73% and 55%"},
      {"measurement": "Optimal % T/C", "setting": "OVCAR-3 (ovarian ca); Q4D X3, 0.45 mg/kg/dose", "result": "20% and 10%"},
      {"measurement": "BW Loss", "setting": "OVCAR-3 (ovarian ca); QD X5, .27 mg/kg/dose", "result": 7.9, "unit": "%"},
      {"measurement": "Growth Delay % [(T − C)/C]", "setting": "OVCAR-3 (ovarian ca); QD X5, .27 mg/kg/dose", "result": 114, "unit": "%"},
      {"measurement": "Optimal % T/C", "setting": "OVCAR-3 (ovarian ca); QD X5, .27 mg/kg/dose", "result": 9, "unit": "%"},
      {"measurement": "value in parentheses in Growth Delay column", "setting": "OVCAR-3 (ovarian ca); QD X5, .27 mg/kg/dose", "result": 1.9, "unit": "L"},
      {"measurement": "MTD at 9 days", "setting": "[2]; Q4D X3, intravenous", "result": "< 0.3", "unit": "mg/kg"},
      {"measurement": "MTD at 5 days", "setting": "[2]; QD X5, intravenous", "result": 0.12, "unit": "mg/kg"},
      {"measurement": "BW Loss", "setting": "SF-295 (glioma); Q4D X3, 0.11 mg/kg/dose", "result": 0.1, "unit": "%"},
      {"measurement": "Growth Delay % [(T − C)/C]", "setting": "SF-295 (glioma); Q4D X3, 0.11 mg/kg/dose", "result": 60, "unit": "%"},
      {"measurement": "Optimal % T/C", "setting": "SF-295 (glioma); Q4D X3, 0.11 mg/kg/dose", "result": 10, "unit": "%"},
      {"measurement": "value in parentheses in Growth Delay column", "setting": "SF-295 (glioma); Q4D X3, 0.11 mg/kg/dose", "result": 0.0, "unit": "L"},
      {"measurement": "BW Loss", "setting": "SF-295 (glioma); Q4D X3, 0.16 mg/kg/dose", "result": 4.3, "unit": "%"},
      {"measurement": "Growth Delay % [(T − C)/C]", "setting": "SF-295 (glioma); Q4D X3, 0.16 mg/kg/dose", "result": 103, "unit": "%"},
      {"measurement": "Optimal % T/C", "setting": "SF-295 (glioma); Q4D X3, 0.16 mg/kg/dose", "result": 3, "unit": "%"},
      {"measurement": "value in parentheses in Growth Delay column", "setting": "SF-295 (glioma); Q4D X3, 0.16 mg/kg/dose", "result": 0.9, "unit": "L"},
      {"measurement": "BW Loss", "setting": "SF-295 (glioma); Q4D X3, 0.24 mg/kg/dose", "result": 10.2, "unit": "%"},
      {"measurement": "Growth Delay % [(T − C)/C]", "setting": "SF-295 (glioma); Q4D X3, 0.24 mg/kg/dose", "result": 227, "unit": "%"},
      {"measurement": "Optimal % T/C", "setting": "SF-295 (glioma); Q4D X3, 0.24 mg/kg/dose", "result": "1 (1 tf) %"},
      {"measurement": "tumor free (tf)", "setting": "SF-295 (glioma); Q4D X3, 0.24 mg/kg/dose", "result": "1 (1 tf)"},
      {"measurement": "value in parentheses in Growth Delay column", "setting": "SF-295 (glioma); Q4D X3, 0.24 mg/kg/dose", "result": 3.2, "unit": "L"},
      {"measurement": "BW Loss", "setting": "SF-295 (glioma); Q4D X3, <0.30 mg/kg/dose", "result": 24.0, "unit": "%"},
      {"measurement": "tumor free (tf)", "setting": "SF-295 (glioma); Q4D X3, <0.30 mg/kg/dose, T/C unevaluable", "result": "ue (2 tf)"},
      {"measurement": "BW Loss", "setting": "SF-295 (glioma); QD X5, 0.016 mg/kg/dose", "result": 0.0, "unit": "%"},
      {"measurement": "Growth Delay % [(T − C)/C]", "setting": "SF-295 (glioma); QD X5, 0.016 mg/kg/dose", "result": 31, "unit": "%"},
      {"measurement": "Optimal % T/C", "setting": "SF-295 (glioma); QD X5, 0.016 mg/kg/dose", "result": 33, "unit": "%"},
      {"measurement": "BW Loss", "setting": "SF-295 (glioma); QD X5, 0.024 mg/kg/dose", "result": 3.6, "unit": "%"},
      {"measurement": "Growth Delay % [(T − C)/C]", "setting": "SF-295 (glioma); QD X5, 0.024 mg/kg/dose", "result": 61, "unit": "%"},
      {"measurement": "Optimal % T/C", "setting": "SF-295 (glioma); QD X5, 0.024 mg/kg/dose", "result": 12, "unit": "%"},
      {"measurement": "BW Loss", "setting": "SF-295 (glioma); QD X5, 0.036 mg/kg/dose", "result": 3.5, "unit": "%"},
      {"measurement": "Growth Delay % [(T − C)/C]", "setting": "SF-295 (glioma); QD X5, 0.036 mg/kg/dose", "result": 69, "unit": "%"},
      {"measurement": "Optimal % T/C", "setting": "SF-295 (glioma); QD X5, 0.036 mg/kg/dose", "result": 14, "unit": "%"},
      {"measurement": "BW Loss", "setting": "SF-295 (glioma); QD X5, 0.054 mg/kg/dose", "result": "4.7% and 2.8%"},
      {"measurement": "Growth Delay % [(T − C)/C]", "setting": "SF-295 (glioma); QD X5, 0.054 mg/kg/dose", "result": "165% and 206%"},
      {"measurement": "Optimal % T/C", "setting": "SF-295 (glioma); QD X5, 0.054 mg/kg/dose", "result": "2% and 0%"},
      {"measurement": "tumor free (tf)", "setting": "SF-295 (glioma); QD X5, 0.054 mg/kg/dose", "result": 1, "unit": "tf"},
      {"measurement": "value in parentheses in Growth Delay column", "setting": "SF-295 (glioma); QD X5, 0.054 mg/kg/dose", "result": "2.6 L and 3.0 L"},
      {"measurement": "BW Loss", "setting": "SF-295 (glioma); QD X5, 0.08 mg/kg/dose", "result": 0.0, "unit": "%"},
      {"measurement": "Growth Delay % [(T − C)/C]", "setting": "SF-295 (glioma); QD X5, 0.08 mg/kg/dose", "result": 131, "unit": "%"},
      {"measurement": "Optimal % T/C", "setting": "SF-295 (glioma); QD X5, 0.08 mg/kg/dose", "result": 3, "unit": "%"},
      {"measurement": "value in parentheses in Growth Delay column", "setting": "SF-295 (glioma); QD X5, 0.08 mg/kg/dose", "result": 2.0, "unit": "L"},
      {"measurement": "BW Loss", "setting": "SF-295 (glioma); QD X5, 0.12 mg/kg/dose", "result": "7.5% and 5.3%"},
      {"measurement": "Growth Delay % [(T − C)/C]", "setting": "SF-295 (glioma); QD X5, 0.12 mg/kg/dose", "result": "241% and 196%"},
      {"measurement": "Optimal % T/C", "setting": "SF-295 (glioma); QD X5, 0.12 mg/kg/dose", "result": "4 (4 tf) % and 2 (2 tf) %"},
      {"measurement": "tumor free (tf)", "setting": "SF-295 (glioma); QD X5, 0.12 mg/kg/dose", "result": "4 (4 tf) and 2 (2 tf)"},
      {"measurement": "value in parentheses in Growth Delay column", "setting": "SF-295 (glioma); QD X5, 0.12 mg/kg/dose", "result": "3.1 L and 3.2 L"},
      {"measurement": "minimum effective dose", "setting": "SF-295 (glioma); SF-295, qDx5 schedule, athymic mice", "result": 16, "unit": "μg/kg/dose"}
    ]}
  ]
}
